We go through six molecules from article PMC6225228, “Design, Synthesis and Evaluation of N-pyrazinylbenzamides as Potential Antimycobacterial Agents” (Molecules : A Journal of Synthetic Chemistry and Natural …, 2018).

Structures are written as SMILES. ≈ marks a conversion by molar mass, not a printed value. Like-named read-outs stand apart in the source and are kept apart here. Some results are limits rather than exact numbers.

The test system of one test is Candida tropicalis 156. The test can be described thus: Antifungal microdilution broth, CT. Type of test: cell-based. The following applies: read-out: MIC CT. (In broth dilution the organism is exposed to a series of concentrations in liquid medium.)
Test [1] deals with Lichtheimia corymbifera 272. As to the kind of experiment: Antifungal microdilution broth, LC. Type of test: cell-based. The following applies: read-out: MIC LC.
The next test concerns Candida krusei E28. The test can be described thus: Antifungal microdilution broth, CK. The following applies: Pichia kudriavzevii, read-out: MIC CK. It is filed as cell-based.
Test [2] has as its system Candida albicans ATCC 44859. The test can be described thus: Antifungal microdilution broth, CA. Type of test: cell-based. The following applies: Candida albicans, read-out: MIC CA.
A further test has as its system Trichosporon asahii 1188. The test can be described thus: Antifungal microdilution broth, TA. Type of test: cell-based. The following applies: read-out: MIC TA.
For test [3], the system named is Aspergillus fumigatus 231. As to the kind of experiment: Antifungal microdilution broth, AF. The following applies: read-out: MIC AF. It is filed as cell-based.
In test [4] the test system is Trichophyton interdigitale 445. As to the kind of experiment: Antifungal microdilution broth, TI. It is filed as cell-based. The following applies: read-out: MIC TI.
The test system of a further test is Candida glabrata 20/I. As to the kind of experiment: Antifungal microdilution broth, CG. Type of test: cell-based. The following applies: Nakaseomyces glabratus, 20/I, read-out: MIC CG.
In test [5] the test system is Staphylococcus aureus H 5996/08 methicillin resistant. The test can be described thus: microbe, parasite or virus in culture. The following applies: Staphylococcus aureus, MRSA, read-out: MIC MRSA. Type of test: cell-based.
The test system of test [6] is Pseudomonas aeruginosa CCM 1961. As to the kind of experiment: Antibacterial microdilution broth, PA. Type of test: cell-based. The following applies: Pseudomonas aeruginosa, read-out: MIC PA.
Test [7] has as its system Staphylococcus aureus CCM 4516/08. The test can be described thus: Antibacterial microdilution broth, SA. It is filed as cell-based. The following applies: Staphylococcus aureus, read-out: MIC SA.
Test [8] has as its system Escherichia coli CCM 4517. As to the kind of experiment: Antibacterial microdilution broth, EC. The following applies: Escherichia coli, read-out: MIC EC. Type of test: cell-based.
Test [9] deals with Staphylococcus epidermidis H 6966/08. As to the kind of experiment: Antibacterial microdilution broth, SE. The following applies: Staphylococcus epidermidis, read-out: MIC SE. It is filed as cell-based.
Test [10] concerns Enterococcus sp. J 14365/08. The test can be described thus: Antibacterial microdilution broth, EF. The following applies: Enterococcus, read-out: MIC EF. It is filed as cell-based.
Test [11] deals with Mycobacterium smegmatis CCM 4622 (ATCC 607). The test can be described thus: Antimycobacterial microdilution, M. smegmatis. It is filed as cell-based. The following applies: Mycolicibacterium smegmatis, Middlebrook 7H9 with OADC, resazurin; read-out: M. smeg. ATCC 607 MIC.
The test system of test [12] is M. kansasii CNCTC My 235/80 (ATCC 12478). The test can be described thus: Antimycobacterial microdilution MABA, M. kansasii. Type of test: cell-based, Mycobacterium kansasii. The following applies: Mycobacterium kansasii, ATCC12478; Middlebrook 7H9 with OADC, pH 6.6, MABA; read-out: M. kans. ATCC 12478 MIC.
Test [13] has as its system Mycobacterium tuberculosis H37Rv CNCTC My 331/88 (ATCC 27294). As to the kind of experiment: Antimycobacterial microdilution MABA, M. tuberculosis. Type of test: cell-based. The following applies: Mycobacterium tuberculosis, Middlebrook 7H9 with OADC growth supplement, pH = 6.6, MABA; read-out: Mtb H37Rv ATCC 27294 MIC.
The subject of test [14] is M. avium ssp. avium CNCTC My 80/72 (ATCC 15769). The test can be described thus: Antimycobacterial microdilution MABA, M. avium. It is filed as cell-based, Mycobacterium avium. The following applies: Mycobacterium avium, ATCC15769; Middlebrook 7H9 with OADC, pH 6.6, MABA; read-out: M. avium ATCC 15769 MIC.
[15] abbreviates: Lichtheimia corymbifera, 272, 24 h.
Setting [16] is: Lichtheimia corymbifera, 272, 48 h.
Setting [17] is: Trichosporon asahii, 1188, 24 h.
[18] abbreviates: Trichosporon asahii, 1188, 48 h.
The mark [19] stands for this setting: Aspergillus fumigatus, 231, 24 h.
The mark [20] stands for this setting: Aspergillus fumigatus, 231, 48 h.
[21] abbreviates: Trichophyton interdigitale, 445, 72 h.
The mark [22] stands for this setting: Trichophyton interdigitale, 445, 120 h.

On to `OC(Cn1cncn1)(Cn1cncn1)c1ccc(F)cc1F` [FLU, fluconazole, reference compound], for which the MIC was over 500 µM in the test on Candida tropicalis 156 (Candida tropicalis, 156, 24 h); over 500 µM in the test with Candida tropicalis 156 (Candida tropicalis, 156, 48 h); over 500 µM in [1] (setting [15]); over 500 µM in test [1] (setting [16]); 125 µM (≈ 38.3 µg/mL) in the test on Candida krusei E28 (E28, 24 h); 250 µM (≈ 76.6 µg/mL) with Candida krusei E28 (E28, 48 h). The MIC in test [2] (ATCC44859, 24 h) was 0.24 µM (≈ 0.0735 µg/mL); in [2] (ATCC44859, 48 h) it was 0.24 µM (≈ 0.0735 µg/mL); in the test on Trichosporon asahii 1188 (setting [17]), 250 µM (≈ 76.6 µg/mL); in the test with Trichosporon asahii 1188 (setting [18]), 500 µM (≈ 153 µg/mL); in test [3] (setting [19]), over 500 µM; in [3] (setting [20]), over 500 µM. The MIC is 7.81 µM (≈ 2.39 µg/mL) in test [4] (setting [21]), 125 µM (≈ 38.3 µg/mL) in test [4] (setting [22]), 31.2 µM (≈ 9.57 µg/mL) in the test on Candida glabrata 20/I (24 h) and 250 µM (≈ 76.6 µg/mL) in the test with Candida glabrata 20/I (48 h).
Turning to `CC1(C)S[C@@H]2[C@H](NC(=O)Cc3ccccc3)C(=O)N2[C@H]1C(=O)O` [Pen, benzylpenicillin, reference compound], the MIC in [5] (24 h) is 125 µM (≈ 41.8 µg/mL); in test [5] (48 h), 125 µM (≈ 41.8 µg/mL); in test [6] (CCM1961, 72 h), over 500 µM; in test [6] (CCM1961, 120 h), over 500 µM; in [7] (CCM4516, 24 h) it was 0.24 µM (≈ 0.0803 µg/mL); in test [7] (CCM4516, 48 h), 0.24 µM (≈ 0.0803 µg/mL). In addition, the MIC in test [8] (CCM4517, 24 h) turned out to be 125 µM (≈ 41.8 µg/mL); in test [8] (CCM4517, 48 h), 125 µM (≈ 41.8 µg/mL); in test [9] (H6966/08, 24 h), 31.2 µM (≈ 10.4 µg/mL); in test [9] (H6966/08, 48 h), 125 µM (≈ 41.8 µg/mL); in test [10] (SP.J14365/08, 24 h), 7.81 µM (≈ 2.61 µg/mL); in test [10] (SP.J14365/08, 48 h) it was 15.6 µM (≈ 5.22 µg/mL).
For `CCc1ccc(C(=O)Nc2cncc(Cl)n2)cc1` [Compound 3i], the MIC in test [11] was at least 500 µg/mL; in test [12], over 100 µg/mL; in test [13], over 100 µg/mL; in test [14] it was over 100 µg/mL.
With `C[C@@H](c1ncncc1F)[C@](O)(Cn1cncn1)c1ccc(F)cc1F` [VOR, voriconazole, reference compound], the MIC in the test on Candida tropicalis 156 (Candida tropicalis, 156, 24 h) was 62.5 µM (≈ 21.8 µg/mL); with Candida tropicalis 156 (Candida tropicalis, 156, 48 h), 250 µM (≈ 87.3 µg/mL); in [1] (setting [15]) it was 125 µM (≈ 43.7 µg/mL); in test [1] (setting [16]), 250 µM (≈ 87.3 µg/mL); with Candida krusei E28 (E28, 24 h) it was 0.49 µM (≈ 0.171 µg/mL); in the test with Candida krusei E28 (E28, 48 h), 1.95 µM (≈ 0.681 µg/mL). Besides, the MIC is 0.002 µM (≈ 0.000699 µg/mL) in test [2] (ATCC44859, 24 h); 0.008 µM (≈ 0.00279 µg/mL) in test [2] (ATCC44859, 48 h); 0.98 µM (≈ 0.342 µg/mL) with Trichosporon asahii 1188 (setting [17]); 7.81 µM (≈ 2.73 µg/mL) with Trichosporon asahii 1188 (setting [18]); 0.49 µM (≈ 0.171 µg/mL) in [3] (setting [19]); 1.95 µM (≈ 0.681 µg/mL) in test [3] (setting [20]). The MIC in [4] (setting [21]) stood at 0.061 µM (≈ 0.0213 µg/mL); in test [4] (setting [22]), 0.12 µM (≈ 0.0419 µg/mL); in the test with Candida glabrata 20/I (24 h), 0.24 µM (≈ 0.0838 µg/mL); in the test with Candida glabrata 20/I (48 h), 250 µM (≈ 87.3 µg/mL).
On to `C[C@@H]1[C@H](O)[C@@H](C)/C=C/C=C/C=C/C=C/C=C/C=C/C=C/[C@H](O[C@@H]2O[C@H](C)[C@@H](O)[C@H](N)[C@@H]2O)C[C@@H]2O[C@](O)(C[C@@H](O)C[C@@H](O)[C@H](O)CC[C@@H](O)C[C@@H](O)CC(=O)O[C@H]1C)C[C@H](O)[C@H]2C(=O)O` [AMPB, amphotericin B, reference compound], for which the MIC was 1.95 µM (≈ 1.8 µg/mL) with Candida tropicalis 156 (Candida tropicalis, 156, 24 h); 1.95 µM (≈ 1.8 µg/mL) in the test with Candida tropicalis 156 (Candida tropicalis, 156, 48 h); 7.81 µM (≈ 7.22 µg/mL) in [1] (setting [15]); 7.81 µM (≈ 7.22 µg/mL) in test [1] (setting [16]); 1.95 µM (≈ 1.8 µg/mL) with Candida krusei E28 (E28, 24 h); 1.95 µM (≈ 1.8 µg/mL) in the test on Candida krusei E28 (E28, 48 h). Moreover, the MIC in test [2] (ATCC44859, 24 h) was found to be 0.12 µM (≈ 0.111 µg/mL); in test [2] (ATCC44859, 48 h), 0.49 µM (≈ 0.453 µg/mL); in the test on Trichosporon asahii 1188 (setting [17]), 0.49 µM (≈ 0.453 µg/mL); with Trichosporon asahii 1188 (setting [18]), 0.98 µM (≈ 0.906 µg/mL); in [3] (setting [19]), 1.95 µM (≈ 1.8 µg/mL); in test [3] (setting [20]) it was 1.95 µM (≈ 1.8 µg/mL). The MIC in [4] (setting [21]) stood at 1.95 µM (≈ 1.8 µg/mL); in test [4] (setting [22]) it was 1.95 µM (≈ 1.8 µg/mL); in the test with Candida glabrata 20/I (24 h), 0.98 µM (≈ 0.906 µg/mL); in the test on Candida glabrata 20/I (48 h), 1.95 µM (≈ 1.8 µg/mL).
As to `O=C(O)c1cn(C2CC2)c2cc(N3CCNCC3)c(F)cc2c1=O` [CPX, ciprofloxacin, reference compound], in [11], the MIC was found to be 0.195 µg/mL (≈ 0.589 µM).
